Data on 4 compounds can be found in the NIST ThermoML archive (doi:10.1016/j.fluid.2009.05.005).

Structures are written as SMILES. ± gives the expanded uncertainty stated by the source.

Data set [1] in a line: activity coefficient (dimensionless); of the first substance listed, at infinite dilution; xn = mol fraction of the nth substance listed. As to conditions: 101 kPa, Liquid, circulation still, x1 = 0.
Data set [2] in a line: Excess molar heat capacity; xn = mol fraction of the nth substance listed. As to conditions: 298.15 K; 101 kPa; Liquid; Flow calorimetry; x2 = 0.
The mark [3] stands for this setting: 333.15 K, Rayleigh distillation.
Setting [4] is: 343.15 K, Rayleigh distillation.
Where [5] appears, read: 353.15 K, Rayleigh distillation.

For `CN1CCCC1=O` [N-methylpyrrolidone] + O, the activity coefficient in data set [1] (333.15 K, differential distillation) stood at 1.34 ± 0.06; in data set [1] (343.15 K, differential distillation) it was 1.56 ± 0.06; in data set [1] (353.15 K, differential distillation), 1.75 ± 0.06; in data set [1] (372.85 K, differential distillation), 2.07 ± 0.1.
Consider `C1CCNCC1` [piperidine] + O, for which the activity coefficient in data set [1] (setting [3]) came out at 11.9 ± 0.1; in data set [1] (setting [4]), 14.7 ± 0.1; in data set [1] (setting [5]), 17.7 ± 0.1; in data set [1] (372.6 K, Rayleigh distillation) it was 21 ± 0.1.
Regarding `c1ccncc1` [pyridine] + O, the activity coefficient stood at 24 ± 0.1 in data set [1] (setting [3]); 25.5 ± 0.1 in data set [1] (setting [4]); 26 ± 0.1 in data set [1] (setting [5]); 25.4 ± 0.1 in data set [1] (372.8 K, Rayleigh distillation).
As for `O` [water] + CN1CCCC1=O, in data set [2], the molar heat capacity was 131 ± 2 J/K/mol.
